In US20130158112A1, “COMPOSITIONS AND METHODS FOR INHIBITING BETA AMYLOID SECRETION” (priority 2011, published 2013):
Read-outs that look alike come from different tables or passages of the source.

Key:
Aβ secretion = assay: Secreted total Aβ ELISA in conditioned media of H4βAPP695 wt cells; format: cell-based, human; details: for inhibition at 10 µM / inhibition at 30 µM: Homo sapiens, 24 h, H4βAPP695 wt cells; for inhibition at 10 µM: read-out: Total Aβ (% decrease) 10 μM Mean; for inhibition at 30 µM: read-out: Total Aβ (% decrease) 30 μM Mean; for Aβ secretion inhibiting activity (structure activity summary): in words
Procedure: (§1) H4βAPP695 wt cells, a human […] cell line stably transfected with a wtβAPP695 expression vector construct under the control of a CMV promoter (kindly provided by Dr. Chris Eckman from Mayo Clinic, Florida) were cultured as previously described. Twenty-four hours before drug treatment, the media was replaced with serum-free media. Cells were then incubated with drugs (dissolved in DMSO) or vehicle for 24 h for collection of conditioned media and cell lysates. For the PKC inhibitors experiment, three inhibitors were treated 30 min prior to drug challenge. Primary cortical neurons were prepared from embryonic day 18 APP and presenilin 1 (APPswe, PSEN1dE9) transgenic mice on the C57BL/6 genetic background (Jackson Laboratories, strain no. 5864) as previously described. THLE-3 human hepatoma cells (from ATCC) were plated in 24-well plates that were precoated with 10 μg/mL bovine serum albumin, 10 μg/mL fibronectin, and 30 μg/mL bovine type I collagen. The cells were grown in BEGM media (Clonetics) until confluent and treated with drugs at 20 μM for 24 h. This conditioned media was harvested, diluted 1:1 in serum-free medium, and incubated with H4βAPP695 wt cells for 24 h prior to analysis of secreted Aβ, which was compared to the effect of 10 μM drug treatments without prior incubation with the THLE-3 cells. Caco-2 cells (ATCC) were plated in 12-well plates with Transwell inserts (Costar) at 70000 cells per well and grown for 21 days. The media volume of the apical and basal chambers was 0.5 and 1.5 mL, respectively. Transepithelial resistance was measured in each well and found to be >160 Ω/cm^2. Drugs at 40 μM and 20 μg/mL of lucifer yellow were added in serum-free medium to the apical chamber. Four hours later, the basal chamber media was harvested and used to measure lucifer yellow fluorescence to confirm monolayer integrity as well as for treatment of H4βAPP695 wt cells for 24 h prior to analysis of secreted Aβ, which was compared to the effect of direct addition of 10 μM of the corresponding drug.

[1] = tested on: THLE-3 human hepatoma cells; assay: Drug activity persistence after incubation with THLE-3 hepatoma cells; format: in vitro ADME; details: for inhibition at 10 µM: Homo sapiens, THLE3, 24 h; for % remaining Activity: after 24 h incubation with hepatoma cells
Procedure: as §1
To screen for resistance to metabolism, 1 and eight noncytotoxic analogues with >50% Aβ reducing activity (compounds 27, 29, 48, 52, 53, 65, 73, and 76) were incubated at 20 μM for 24 h with or without THLE-3 human hepatoma cells.

Caco-2 cells = assay: Epithelial transcellular transport of drug activity through Caco-2 monolayers; format: in vitro ADME; details: for % theoretical activity: % of activity passing through Caco-2 monolayer; for inhibition at 10 µM / inhibition at up to 10 µM: Homo sapiens; for inhibition at 10 µM: Caco-2, 10 μM drug alone added directly to H4βAPP695 wt cells, read-out: transcellular transport No total Aβ (% decrease); for inhibition at up to 10 µM: Caco-2, 4 h, lower chamber media after 4 h on Caco-2 monolayer, 10 μM if in equilibrium, read-out: transcellular transport Yes total Aβ (% decrease)
Procedure: as §1
Monolayer integrity was confirmed by high levels of transcellular electrical resistance (>160 ohms/cm^2) and by transcellular impermeability to the fluorescent dye lucifer yellow. […] The concentration of each compound added to the upper chamber would lead to 10 μM in the lower chamber if equilibration was complete, and thus the activity of the lower chamber media was compared to the activity of 10 μM drug added directly to the H4βAPP695 wt cells. […] Compound 1 crossed the monolayer and the bottom chamber media led to a 27% reduction in Aβ production, yielding 38% of the theoretical activity. The compound with the most activity in the lower chamber was compound 48, which decreased Aβ production by 50%, with 71% of its theoretical activity. […] On the basis of the combined activity data from these last two studies, compound 48 was selected as the lead drug for in vivo study.

H4βAPP695 wt cells = assay: Cytotoxicity by total cell protein content (BCA) of H4βAPP695 wt cells; details: cytotoxicity
Procedure: Cells were washed with cold phosphate buffered saline (PBS) and lysed on ice by vigorous mixing over 15 min with RIPA buffer containing 50 mM Tris-HCl (pH 8.0), 150 mM sodium chloride, 1% NP-40, 0.5% sodium deoxycholate, and 0.1% SDS, supplemented with 10% protease inhibitor cocktail and 2 mM PMSF. After centrifugation at 14000 g for 30 min to remove nuclei and other debris at 4° C., the protein content of the supernatants was measured using the BCA assay kit (Pierce).
The initial screen was performed in 96-well plates with drugs distributed by the hanging drop method yielding estimated drug levels of 10-25 μM. Total Aβ levels in the 24 h conditioned media were measured by a sandwich ELISA assay, and cytotoxicity was assessed by methylene blue staining of the cells in the wells, as previously described.

[2] = 10 μM on H4 cells, without preincubation with hepatoma cells, read-out: hepatoma incubation No total Aβ (% decrease)
[3] = 20 μM preincubated 24 h with THLE-3 hepatoma cells, diluted to 10 μM on H4 cells, read-out: hepatoma incubation Yes total Aβ (% decrease)

Row | % remaining Activity [1] | % theoretical activity (Caco-2 cells) | melting point | SMILES | inhibition at 10 µM (Aβ secretion) | inhibition at 30 µM (Aβ secretion) | Aβ secretion inhibiting activity (structure activity summary) (Aβ secretion) | inhibition at 10 µM [1, 2] | inhibition at 10 µM [1, 3] | inhibition at 10 µM (Caco-2 cells) | inhibition at up to 10 µM (Caco-2 cells) | Cell protein (% decrease) 10 μM Mean (H4βAPP695 wt cells) | Cell protein (% decrease) 30 μM Mean (H4βAPP695 wt cells) | hepatoma incubation Yes total Aβ (% decrease) ([1]; 20 μM preincubated 24 h with THLE-3 hepatoma cells, diluted to 10 μM on H4 cells)
1 | 49% | 4.0% | 83 to 84 °C | COc1cc(Cl)cc(CSCCNC(=O)c2c(Cl)cccc2Cl)c1 [Compound 73, 2,6-Dichloro-N-[2-(3-chloro-5-methoxy-benzylsulfanyl)-ethyl]-benzamide] | > 50% | 81% | could be tolerated | 67.7% | 33.5% | 67.7% | 2.7% | 0.9% | 0.4% | –
2 | 47% | 1.3% | 75 to 78 °C | O=C(NCCSCc1cccc(I)c1)c1c(Cl)cccc1Cl [Compound 53, 2,6-Dichloro-N-[2-(3-iodo-benzylsulfanyl)-ethyl]-benzamide] | – | 88.3% | good activity | 84.4% | 40% | 84.4% | 1% | 9.2% | 19% | 40.0%
3 | – | – | 138 to 140 °C | O=C(NCCSCc1ccc(O)cc1)c1c(Cl)cccc1Cl [Compound 28, 2,6-Dichloro-N-[2-(4-hydroxy-benzylsulfanyl)-ethyl]-benzamide] | 13.1% | 56.7% | loss of activity | – | – | – | – | 8.7% | 4.4% | –
4 | – | – | 165 to 166 °C | O=C(O)c1cccc(CSCCNC(=O)c2c(Cl)cccc2Cl)c1 [Compound 44, 3-[2-(2,6-Dichloro-benzoylamino)-ethylsulfanylmethyl]-benzoic Acid] | -11.4% | -3.8% | did not yield good activity | – | – | – | – | 7.1% | 3.2% | –
5 | – | – | 93 to 94 °C | O=C(NCCSCc1cccc(Cl)c1)c1c(C(F)(F)F)cccc1C(F)(F)F [Compound 74, N-[2-(3-Chloro-benzylsulfanyl)-ethyl]-2,6-bis-trifluoromethyl-benzamide] | 6.2% | 13.5% | not well tolerated | – | – | – | – | −4.2% | −0.4% | –
6 | – | – | 75 to 76 °C | O=C(NCCSCc1cccc(Cl)c1)c1ccccc1 [Compound 63, N-[2-(3-Chloro-benzylsulfanyl)-ethyl]-benzamide] | 0.3% | 10.7% | not well tolerated | – | – | – | – | 2.4% | −4.5% | –
7 | – | – | 76 to 78 °C | O=C(NCCSCc1cccc([N+](=O)[O-])c1)c1c(Cl)cccc1Cl [Compound 40, 2,6-Dichloro-N-[2-(3-nitro-benzylsulfanyl)-ethyl]-benzamide] | > 50% | 72.5% | good activity | – | – | – | – | 7.5% | 24.6% | –
8 | – | – | 123 to 125 °C | N#Cc1cccc(CSCCNC(=O)c2c(Cl)cccc2Cl)c1 [Compound 38, 2,6-Dichloro-N-[2-(3-cyano-benzylsulfanyl)-ethyl]-benzamide] | 20% | 38.7% | did not yield good activity | – | – | – | – | −4.8% | 4.3% | –
